Where two headings read alike, the source gives them in different places.
Tests used:
Assay in all cases: Post-emergence efficacy, glasshouse pot test
Type in all cases: in vivo
[1] = test system: Amaranthus palmeri (AMAPA); settings: 312 h, read-out: Post-emergence efficacy AMAPA (100=total damage to plant; 0=no damage to plant)
Method: (§1) Seeds of a variety of test species were sown in standard soil in pots. After cultivation for 14 days (post-emergence) under controlled conditions in a glasshouse (at 24/16° C., day/night; 14 hours light; 65% humidity), the plants were sprayed with an aqueous spray solution derived from the dissolution of the technical active ingredient formula (I) in a small amount of acetone and a special solvent and emulsifier mixture referred to as IF50 (11.12% Emulsogen EL360 TM+44.44% N-methylpyrrolidone+44.44% Dowanol DPM glycol ether), to create a 50 g/l solution which was then diluted to required concentration using 0.25% or 1% Empicol ESC70 (Sodium lauryl ether sulphate)+1% ammonium sulphate as diluent.
(§2) The test plants were then grown in a glasshouse under controlled conditions (at 24/16° C., day/night; 14 hours light; 65% humidity) and watered twice daily. After 13 days the test was evaluated (100=total damage to plant; 0=no damage to plant).
(§3) Ipomoea hederacea (IPOHE), Euphorbia heterophylla (EPHHL), Chenopodium album (CHEAL), Amaranthus palmeri (AMAPA), Lolium perenne (LOLPE), Digitaria sanguinalis (DIGSA), Eleusine indica (ELEIN), Echinochloa crus-galli (ECHCG), Setaria faberi (SETFA)

[2] = test system: Chenopodium album (CHEAL); settings: 312 h, read-out: Post-emergence efficacy CHEAL (100=total damage to plant; 0=no damage to plant)
Method: as §1, §2, §3

[3] = test system: Digitaria sanguinalis (DIGSA); settings: 312 h, read-out: Post-emergence efficacy DIGSA (100=total damage to plant; 0=no damage to plant)
Method: as §1, §2, §3

[4] = test system: Ipomoea hederacea (IPOHE); settings: 312 h, read-out: Post-emergence efficacy IPOHE (100=total damage to plant; 0=no damage to plant)
Method: as §1, §2, §3

Eleusine indica (ELEIN) = settings: 312 h, read-out: Post-emergence efficacy ELEIN (100=total damage to plant; 0=no damage to plant)
Method: as §1, §2, §3

Setaria faberi (SETFA) = settings: 312 h, read-out: Post-emergence efficacy SETFA (100=total damage to plant; 0=no damage to plant)
Method: as §1, §2, §3

[5] = test system: Euphorbia heterophylla (EPHHL); settings: 312 h, read-out: Post-emergence efficacy EPHHL (100=total damage to plant; 0=no damage to plant)
Method: as §1, §2, §3

Lolium perenne (LOLPE) = settings: 312 h, read-out: Post-emergence efficacy LOLPE (100=total damage to plant; 0=no damage to plant)
Method: as §1, §2, §3

[6] = test system: Echinochloa crus-galli (ECHCG); settings: 312 h, read-out: Post-emergence efficacy ECHCG (100=total damage to plant; 0=no damage to plant)
Method: as §1, §2, §3

[7] = Application rate 500 g/Ha, post-emergence spray, evaluated after 13 days

Row | SMILES | pest or weed control at 500 g/ha ([1]; post-emergence) [%] | pest or weed control at 500 g/ha ([2]; post-emergence) [%] | pest or weed control at 500 g/ha ([3]; post-emergence) [%] | pest or weed control at 500 g/ha ([4]; post-emergence) [%] | pest or weed control at 500 g/ha (Eleusine indica (ELEIN); post-emergence) [%] | pest or weed control at 500 g/ha (Setaria faberi (SETFA); post-emergence) [%] | pest or weed control at 500 g/ha ([5]; post-emergence) [%] | pest or weed control at 500 g/ha (Lolium perenne (LOLPE); post-emergence) [%] | pest or weed control at 500 g/ha ([6]; post-emergence) [%] | pest or weed control at 500 g/ha [1, 7] [%] | pest or weed control at 500 g/ha [2, 7] [%] | pest or weed control at 500 g/ha [3, 7] [%] | pest or weed control at 500 g/ha [4, 7] [%] | pest or weed control at 500 g/ha (Eleusine indica (ELEIN); [7]) [%] | pest or weed control at 500 g/ha (Setaria faberi (SETFA); [7]) [%] | pest or weed control at 500 g/ha [5, 7] [%] | pest or weed control at 500 g/ha (Lolium perenne (LOLPE); [7]) [%] | pest or weed control at 500 g/ha [6, 7] [%]
1 | Cn1cnc(-c2cc[n+](CC(=O)NCC(=O)O)nc2)n1 [Compound A2, 2-[[2-[4-(1-methyl-1,2,4-triazol-3-yl)pyridazin-1-ium-1-yl]acetyl]amino]acetic acid chloride] | 100 | 70 | 100 | 40 | 80 | 100 | 50 | 40 | 100 |  |  |  |  |  |  |  |  | 
2 | CN(CC(=O)O)C(=O)C[n+]1ccc(-c2ncn(C)n2)cn1 [Compound A3] |  |  |  |  |  |  |  |  |  | 100 | 100 | 100 | 40 | 90 | 100 | 50 | 30 | 100
3 | Cn1cnc(-c2cc[n+](CC(=O)NCCS(=O)(=O)[O-])nc2)n1 [Compound A5, 2-[[2-[4-(1-methyl-1,2,4-triazol-3-yl)pyridazin-1-ium-1-yl]acetyl]amino]ethanesulfonate] |  |  |  |  |  |  |  |  |  | 90 | 80 | 90 | 20 | 60 | 90 | 60 | 50 | 100
4 | CN(CCS(=O)(=O)[O-])C(=O)C[n+]1ccc(-c2ncn(C)n2)cn1 [Compound A6] |  |  |  |  |  |  |  |  |  | 90 | 80 | 90 | 30 | 80 | 80 | 70 | 20 | 90
5 | Cn1cnc(-c2cc[n+](CSCCC(=O)O)nc2)n1 [Compound A7] |  |  |  |  |  |  |  |  |  | 100 | 90 | 100 | 20 | 90 | 100 | 70 | 70 | 100
6 | Cn1cnc(-c2cc[n+](CSCC(=O)O)nc2)n1 [Compound A8, 2-[[4-(1-methyl-1,2,4-triazol-3-yl)pyridazin-1-ium-1-yl]methylsulfanyl]acetic acid chloride] |  |  |  |  |  |  |  |  |  | 100 | 90 | 100 | 30 | 100 | 100 | 70 | 70 | 100
7 | CC(C)(NC(=O)C[n+]1ccc(-c2nccs2)cn1)C(=O)O [Compound A9] |  |  |  |  |  |  |  |  |  | 100 | 50 | 40 | 20 | 70 | 40 | 80 | 30 | 30
8 | CC(NC(=O)C[n+]1ccc(-c2nccs2)cn1)C(=O)O (stereo not drawn) [Compound A10] |  |  |  |  |  |  |  |  |  | 100 | 90 | 40 | 60 | 40 | 40 | 90 | 20 | 60
9 | CN(CC(=O)O)C(=O)C[n+]1ccc(-c2nccs2)cn1 [Compound A11] |  |  |  |  |  |  |  |  |  | 90 | 20 | 40 | 20 | 50 | 50 | 90 | 30 | 50
10 | O=C(O)CNC(=O)C[n+]1ccc(-c2nccs2)cn1 [Compound A12] |  |  |  |  |  |  |  |  |  | 100 | 90 | 40 | 70 | 70 | 50 | 100 | 50 | 90
11 | O=C(O)CNC(=O)CC[n+]1ccc(-c2ncco2)cn1 [Compound A13] |  |  |  |  |  |  |  |  |  | 100 | 100 | 100 | 60 | 90 | 100 | 90 | 60 | 100
12 | O=C(O)CNC(=O)CC[n+]1ccc(-c2nccs2)cn1 [Compound A14] |  |  |  |  |  |  |  |  |  | 100 | 90 | 100 | 70 | 100 | 90 | 100 | 50 | 100
13 | CC(C)(NC(=O)CC[n+]1ccc(-c2nccs2)cn1)C(=O)O [Compound A15] |  |  |  |  |  |  |  |  |  | 100 | 100 | 100 | 40 | 90 | 100 | 50 | 30 | 100
14 | CC(NC(=O)CC[n+]1ccc(-c2nccs2)cn1)C(=O)O (stereo not drawn) [Compound A16] |  |  |  |  |  |  |  |  |  | 100 | 90 | 100 | 20 | 100 | 100 | 40 | 60 | 100
15 | O=C(O)CNS(=O)(=O)CC[n+]1ccc(-c2nccs2)cn1 [Compound A17, 2-[2-(4-thiazol-2-ylpyridazin-1-ium-1-yl)ethylsulfonylamino]acetic acid 2,2,2-trifluoroacetate] |  |  |  |  |  |  |  |  |  | 0 | 30 | 80 | 10 | 10 | 20 | 20 | 0 | 20
